Experimental data taken from patent publication US5334588A, “Composition for inhibiting transmission of hepatitis B virus” (priority 1991, dated 1994).
Read-outs that look alike come from different tables or passages of the source.

What was measured:
HSV = assay: Toxicity of drugs for HSV, titer on vero cells (Table 7A); assay type: cell-based; settings: 200 μl of 500 μg/ml stock added to 1 ml virus, 20 min at R.T.; for Titer: read after 48 hours
Description: One ml HSV at 3 × 10^6/ml was incubated with 200 μliters of
drugs each 500 μg/ml stock solution. After 20 minutes at
R.T., the virus was titered on monolayers of vero cells,
incubatwd for 2 hours, then overlayed with methyl cellulose.
Virus titers were read after 48 hours. No drug toxicity* was […]

H9 cells = settings: for % Viab (live cells/live & dead) / Viable Cells/ml: 10 min exposure; for % Viab (live cells/live & dead): after 24 h; for Viable Cells/ml: viability after 24 h
Description: The toxicity of the various agents used in the antiviral compositions of the invention to human T4 -lymphocytes (H9 cells and marophages which are the carriers of the AIDS virus) may be relevant to the effectiveness of a drug. This is because killing these cells when present in semen or vaginal fluids may lead to release of virus making it more susceptible to the effects of the drug. With this in mind, the effect of short exposure (10 minutes) of AgSD and other drugs on H9 cells was tested by treating a suspension of H9 cells (1.6×10^6 /ml in HBSS) with […] of each drug or drug combination. After incubating for 10 minutes, the cells were washed twice in thirty volumes of HBSS; resuspended in RPMI 10% FCS+NaPyruvate and plated into 24 well plates at 4×10^5 cells/mi. Cell viability was determined after 24 hours and is reported as numbers of viable cells per ml and viable percentage (live cells/live cells+dead cells) in Table 3A.

Gonococcus = assay: Killing of Gonococcus (Table 6); assay type: cell-based; settings: for Colony Counts in Culture: control >50,000
Description: Drugs were suspended in 5 ml of cultures containing […] of
gonoccccus and incubated. Aliquots were removed at 5 and 10 minute
intervals and subcultured for colony counts.

[1] = system: Rauscher Leukemia Virus (RLV); assay: Infectivity of Rauscher Leukemia Virus (RVB3) in mice, spleen weight (Table 4); assay type: in vivo, Balb/CICR mice; settings: 2% drug in coating solution, 20 days; for Weight of Spleen: average of 6 animals, infected glove control 1,627; for Weight Increase from Control: infected glove control 1,541
Description: In vivo tests were performed using Rauscher Leukemia Virus (RLV), a recognized retrovirus model (see, e.g., Nature 323, 467-469 (1986); Rupecht et al., Proc. Nat'l. Acad. Sci. USA 82, 7733-7737 (1985)) which is used by the FDA in testing drugs for use in treating AIDS. RLV was introduced into Balb/CICR mice in which it infects the spleen. The level of virus infectivity was quantified by determining the weight increase of the mouse spleen after 20 days from infection.
Each treatment was prepared by incubating 1.5 ml Dulbecco's Phosphate Buffered Saline (PBS) for 10 minutes at 37° C. in the finger tip of a latex glove. After incubation, as much as possible of the material was removed from the glove. 0.4 ml of PBS was then introduced into the glove and this was the sample which was introduced into the animals. […] Thus two of the groups only had four animals each that were considered.
[…] Each treatment was prepared by incubating 0.4 ml sterile PBS containing RVB3 (a strain of RLV) for 10 minutes in a glove tip which had previously had one of drugs or straight PBS incubated in it as described above. Three additional controls, a PBS containing glove with no virus, a virus sample not incubated in a glove, and a PBS sample not incubated in a glove were also run.

Candida albicans [2] = assay: Rate of killing of Candida albicans on short exposure (Table 5A); assay type: cell-based; settings: 10 minute incubation, control >50,000
Description: 3 ml of Saboraud broth containing 10^5 organism of Candida albicans
were incubated with the above drug. Aliquots were removed at 5 and 10
minute and were subcultured.

[3] = system: ARV-2 strain of AIDS virus; assay: Infectivity of ARV-2 strain of AIDS virus in H9 cells (Table 2); assay type: cell-based; settings: for % Infection: 15 min preincubation, 24 h
Description: A stock solution of virus containing 3 to 5×10^4 infectious virus particles/ml was preincubated with the various drugs as indicated in Table 2 for 15 minutes. The virus sample was then diluted 4-fold in order to reduce the concentrations of the drugs below levels toxic to H9 cells (see Example 3 below) and mixed with 250,000 H9 cells in a total volume of 1 ml. After 24 hours, the cells were assayed to determine the percentage of the culture expressing viral antigen. This time interval was selected as it allows for only a single round of viral infection to have occurred such that the number of cells infected was a direct reflection of the number of infectious virions present in the original sample.

HIV-I = settings: 10 minutes exposure; HIBICLENS or HIBISTAT dilutions; C3-44 cells; cited from earlier work
Staph. aureus [4] = assay: Antibacterial efficacy of drug coated gloves against Staph. aureus (Table 9); assay type: cell-based; settings: 1% in coating solution
Description: The fingers of latex gloves were washed and dried. They were then sprayed with a fine mist spray of a coating solution to provide a uniform coating of solution on the glove surface, sufficient to provide complete wetting thereof without runoff. The coating solutions were prepared by dissolving 1% Silicate®Medical Adhesive Type A and 1% of the silicone MDX4-4159 in ethyl acetate, followed by dissolving and dispersing the chlorhexidine acetate and silver sulfadiazine, respectively, therein. The coating was air dried for 24 hours and the gloves tested using the following test:
Treated glove fingers were draped over the tops of culture tubes with the treated side with sprayed on coating forming the inside of the cup shape. Then 3.0 ml of TSB containing 10^4 colony forming units of Staph. aureus was dispensed in each finger and all placed in a water bath shaker at 37° C. Samples were removed at 15 minutes, 1 hour, 2 hours, and 4 hours, diluted 1-10, and the solution plated on blood agar in 2.0 ml amounts.

Candida albicans [5] = assay: Antifungal efficacy of drug coated gloves against Candida albicans (Table 5B); assay type: cell-based; settings: treated glove
Description: Treated glove fingers were draped over the top of culture
tubes with the treated side foring the inside of the cup
shape. Then 3.0 ml of TSB contining 10^3 organisms of Candida
albicans was dispensed in each finger and all placed in the
water bath shaker at 37° C. Samples were removed at 15
minutes, 1 hour, 2 hours, and 4 hours. They were diluted 1-
10 and plated on blood agar in 2.0 ml amounts.

Staph. aureus [6] = assay: Antibacterial efficacy of coated I.V. catheters, Bioassay A (Table 8); assay type: cell-based; settings: Polyurethane I.V. catheter, silicone matrix coating; 10^4 CFU Staph. aureus
Description: The coatings were applied by dipping and then drying.
Staph. aureus is used to challenge the I.V. catheter.

macrophages = assay: Rate of killing of macrophage by drugs, trypan-blue (Table 3B); assay type: cell-based, mouse; settings: 100 μg; 20 min incubation; control 36% kill
Description: In the experiment, peritonial normal mouse macrophages were enriched by attaching to petri dishes and adjusted to a cell concentration of 5 to 10×10^6 /ml. 0.1 ml aliquots of this suspension were plated in microtiter plates and 10μ and 5μ of each of four samples was added. The control plate received PBS only. After 20 minutes of incubation in a […], the cells were tested for viability using tryphan-blue dye.

C[C@H](CCC(=O)O)[C@H]1CC[C@H]2[C@@H]3CC[C@@H]4C[C@H](O)CC[C@]4(C)[C@H]3C[C@H](O)[C@]12C [NaDC, sodium deoxycholate]
% Inhibition (HSV): 0% | Titer (HSV): 3.2 × 10^6 | % Viab (live cells/live & dead) (H9 cells; 50 (ml/ml as printed in text)): 73% | Viable Cells/ml (H9 cells; 50 (ml/ml as printed in text)): 1.2 × 10^6 Cells/ml | % Viab (live cells/live & dead) (H9 cells; 100 (ml/ml as printed in text)): 44% | Viable Cells/ml (H9 cells; 100 (ml/ml as printed in text)): 2.0 × 10^6 Cells/ml | Colony Counts in Culture (Gonococcus; 1,000 μg/ml, 5 Minutes): 12,000 | Colony Counts in Culture (Gonococcus; 1,000 μg/ml, 10 Minutes): 4,000 | Weight of Spleen [1]: 109 mg | Weight Increase from Control [1]: 23 mg | Colony Counts in Culture (Candida albicans [2]; concentration 1,000 (unit not given)): 8,000 | % infection versus control at 10 µg/mL ([3]; H9, 24 h, read-out: % Infection v. Control): 108% | % Infection ([3]; drug during incubation 40 μg/ml, final 10.0 μg/ml): 3.35%

benzalkonium chloride
% Inhibition (HSV): 98% | Titer (HSV): 5.2 × 10^4

N=C(NCCCCCCNC(=N)NC(=N)Nc1ccc(Cl)cc1)NC(=N)Nc1ccc(Cl)cc1.O=C(O)[C@H](O)[C@@H](O)[C@H](O)[C@H](O)CO.O=C(O)[C@H](O)[C@@H](O)[C@H](O)[C@H](O)CO [chlorohexidine gluconate]
concentration not effective to prevent HIV-I infection (HIV-I): ≤ 0.01%

[H]/N=C(\N/C(=N/[H])NCCCCCCNC(=N)NC(=N)Nc1ccc(Cl)cc1)Nc1ccc(Cl)cc1 [Chlorhexidine, chlorhexidine]
% Inhibition (HSV): 0% | Titer (HSV): 2.7 × 10^6 | Colony Counts in Culture (Gonococcus; 100 μg/ml, 5 Minutes): 2,000 | Colony Counts in Culture (Gonococcus; 100 μg/ml, 10 Minutes): 10 | Weight of Spleen [1]: 234 mg | Weight Increase from Control [1]: 148 mg | Colony Counts in Culture (Candida albicans [2]; concentration 100 (unit not given)): 30 | Colony Counts in Culture (Staph. aureus [4]; 15 min., control 12,000): 100 | Colony Counts in Culture (Staph. aureus [4]; 1 hour, control 15,000): 0 | Colony Counts in Culture (Staph. aureus [4]; 2 hours, control 20,000): 0 | Colony Counts in Culture (Staph. aureus [4]; 4 hours, control 50,000): 0 | viral infectivity ([3]; 10 μg/ml): did not itself reduce viral infectivity | effectiveness for reducing infectivity of AIDS virus ([3]; low concentrations, combination compared with AgSD alone): no effect on infectivity of AIDS virus | Colony Counts in Culture (Candida albicans [5]; 1 Hour, control 2,000): 0 | Colony Counts in Culture (Candida albicans [5]; 2 Hours, control 4,000): 0 | Colony Counts in Culture (Candida albicans [5]; 4 Hours, control 6,000): 0 | Colony Counts in Culture (Candida albicans [5]; 15 Minutes, control 1,400): 75

nonoxynol
Colony Counts in Culture (Gonococcus; 0.1%, 5 Minutes): 40 | Colony Counts in Culture (Gonococcus; 0.1%, 10 Minutes): 70 | effectiveness against gonococcus (Gonococcus; general statement): effective against gonococcus | Colony Counts in Culture (Candida albicans [2]; 0.2%): > 50,000

[H]/N=C(\N/C(=N/[H])NCCCCCCNC(=N)NC(=N)Nc1ccc(Cl)cc1)Nc1ccc(Cl)cc1 [CHA, chlorhexidine acetate]
condition of cells (H9 cells): Cells in terrible condition. | % Viab (live cells/live & dead) (H9 cells; 50 (ml/ml as printed in text)): 73% | % Viab (live cells/live & dead) (H9 cells; 100 (ml/ml as printed in text)): 20% | % infection versus control at 2.5 µg/mL ([3]; H9, 24 h, drug during incubation 10 μg/ml, final 2.5 μg/ml, read-out: % Infection v. Control): 108% | % Infection ([3]; drug during incubation 10 μg/ml, final 2.5 μg/ml): 3.35% | Days of Activity (Staph. aureus [6]): 2 days | % Kill (macrophages): 100%

CC(=O)O[C@H]1C[C@@]2(C)[C@@H](C[C@@H](O)[C@H]3[C@@]4(C)CC[C@@H](O)[C@@H](C)[C@@H]4CC[C@@]32C)/C1=C(\CCC=C(C)C)C(=O)O [Fusidic acid]
Weight of Spleen [1]: 107 mg | Weight Increase from Control [1]: 21 mg
